Reference: US20100152215A1, “METHODS OF IDENTIFYING ACTIVATORS OF LYN KINASE” (MELIOR PHARMACEUTICALS I, INC., priority 2007, published 2010)

Experiments:
Assay type in all cases: biochemical
Lyn (h) = Lyn (h) (Homo sapiens, UniProt P07948); assay: Lyn kinase activation, pre-incubation then standard radiometric assay
MAPKAP2 = MAPKAP2 (Homo sapiens, UniProt P49137); assay: kinase screen for inhibition or activation; settings: 10 μM
Description: (§1) A kinase screen was conducted in which Compound 102 (10 μM) was screened against 49 kinases for inhibition or activation. Any kinase that was activated or inhibited by at least 20% was considered to be a significant effect. Of the 49 kinases screened, Lyn kinase was activated by 51%. In a repeat experiment, Lyn kinase activity was increased by 57%.

RSK1 = RSK1 (Homo sapiens, UniProt Q15418); assay: kinase screen for inhibition or activation; settings: 10 μM
Description: as §1

p70S6K = assay: kinase screen for inhibition or activation; settings: 10 μM; inhibition
Description: as §1

MAPK3 (p38) = assay: kinase screen for inhibition or activation; settings: 10 μM
Description: as §1

AurA = AurA (Homo sapiens, UniProt O14965); assay: kinase screen for inhibition or activation; settings: 10 μM
Description: as §1

MSK1 = MSK1 (Homo sapiens, UniProt O75582); assay: kinase screen for inhibition or activation; settings: 10 μM
Description: as §1

KDR (FLK1, VEGFR2) = KDR (FLK1, VEGFR2) (Homo sapiens, UniProt P35968); assay: kinase screen for inhibition or activation; settings: 10 μM
Description: as §1

ROCK2 = ROCK2 (Homo sapiens, UniProt O75116); assay: kinase screen for inhibition or activation; settings: 10 μM
Description: as §1

AMPK = assay: kinase screen for inhibition or activation; settings: 10 μM, positive = activation, negative = inhibition
Description: as §1

MET = MET (Homo sapiens, UniProt P08581); assay: kinase screen for inhibition or activation; settings: 10 μM
Description: as §1

PAK2 = PAK2 (Homo sapiens, UniProt Q13177); assay: kinase screen for inhibition or activation; settings: 10 μM
Description: as §1

Pim2 = Pim2 (Homo sapiens, UniProt Q9P1W9); assay: kinase screen for inhibition or activation; settings: 10 μM
Description: as §1

MAPK14 (P38) = MAPK14 (P38) (Homo sapiens, UniProt Q16539); assay: kinase screen for inhibition or activation; settings: 10 μM
Description: as §1

FGFR3 = FGFR3 (Homo sapiens, UniProt P22607); assay: kinase screen for inhibition or activation; settings: 10 μM
Description: as §1

Flt3 = Flt3 (Homo sapiens, UniProt P36888); assay: kinase screen for inhibition or activation; settings: 10 μM
Description: as §1

InsR = InsR (Homo sapiens, UniProt P06213); assay: kinase screen for inhibition or activation; settings: 10 μM
Description: as §1

Src = Src (Homo sapiens, UniProt P12931); assay: kinase screen for inhibition or activation; settings: 10 μM
Description: as §1

Akt1 = Akt1 (Homo sapiens, UniProt P31749); assay: kinase screen for inhibition or activation; settings: 10 μM
Description: as §1

IKKb = IKKb (Homo sapiens, UniProt O14920); assay: kinase screen for inhibition or activation; settings: 10 μM
Description: as §1

CHK2 = CHK2 (Homo sapiens, UniProt O96017); assay: kinase screen for inhibition or activation; settings: 10 μM
Description: as §1

PDK1 = PDK1 (Homo sapiens, UniProt O15530); assay: kinase screen for inhibition or activation; settings: 10 μM
Description: as §1

MAPK1 = MAPK1 (Homo sapiens, UniProt P28482); assay: kinase screen for inhibition or activation; settings: 10 μM
Description: as §1

PKA = PKA (Homo sapiens, UniProt P17612); assay: kinase screen for inhibition or activation; settings: 10 μM
Description: as §1

PKD2 = PKD2 (Homo sapiens, UniProt Q9BZL6); assay: kinase screen for inhibition or activation; settings: 10 μM
Description: as §1

BTK = BTK (Homo sapiens, UniProt Q06187); assay: kinase screen for inhibition or activation; settings: 10 μM
Description: as §1

PKCz = PKCz (Homo sapiens, UniProt Q05513); assay: kinase screen for inhibition or activation; settings: 10 μM
Description: as §1

CDK2/cyclinA = CDK2/cyclinA (Homo sapiens, UniProt P24941); assay: kinase screen for inhibition or activation; settings: 10 μM
Description: as §1

Syc = Syc (Homo sapiens, UniProt P43405); assay: kinase screen for inhibition or activation; settings: 10 μM
Description: as §1

[1] = biological target: unphosphorylated Lyn kinase (Homo sapiens, UniProt P07948); assay: Z'-LYTE Kinase Assay Kit-Tyr Peptide-2 Lyn kinase activation assay; settings: for Fold-Activation: 30 μM vs DMSO; for % Phosphorylation of Substrate: 30 μM
Description: The following example was conducted to further optimize assay conditions for detecting Compound 102-mediated activation of Lyn kinase. The assays describe below utilize the Z′-LYTE™ Kinase Assay Kit-Tyr Peptide (Invitrogen, Carlsbad, Calif.). These assay systems were originally developed to detect inhibitors of various tyrosine kinases.
The assay system used was a non-radiometric assay utilizing the Z′-LYTE™ Kinase Assay Kit-Tyr Peptide-2 (Invitrogen, Carlsbad, Calif.) for detecting activity of Lyn kinase. Buffer components were altered as described below. The lyn kinase protein used in these studies was the unphosphorylated form of the protein. Concentrations of this unphosphorylated lyn protein ranged from 25 ng/mL to 300 ng/mL. The preincubation step was lengthened from 30 minutes to 60 minutes.
The Invitrogen Reaction Buffer was used for all studies. The following additions were made to this Reaction Buffer and tested separately and compared to Reaction Buffer alone: Modification 1: Reaction Buffer with 0.1% BSA; Modification 2: Reaction Buffer with 1 mM dithiothreitol; Modification 3: Reaction Buffer with 0.01% BSA, 1 mM dithiothreitol; and Modification 4: Reaction Buffer with 0.1% β-mercaptoethanol.

[2] = Modification 1: Reaction Buffer with 0.1% BSA
[3] = Modification 2: Reaction Buffer with 1 mM dithiothreitol
[4] = Modification 3: Reaction Buffer with 0.01% BSA, 1 mM dithiothreitol
[5] = Modification 4: Reaction Buffer with 0.1% β-mercaptoethanol

Chain of unphosphorylated Lyn kinase (P07948 whole entry): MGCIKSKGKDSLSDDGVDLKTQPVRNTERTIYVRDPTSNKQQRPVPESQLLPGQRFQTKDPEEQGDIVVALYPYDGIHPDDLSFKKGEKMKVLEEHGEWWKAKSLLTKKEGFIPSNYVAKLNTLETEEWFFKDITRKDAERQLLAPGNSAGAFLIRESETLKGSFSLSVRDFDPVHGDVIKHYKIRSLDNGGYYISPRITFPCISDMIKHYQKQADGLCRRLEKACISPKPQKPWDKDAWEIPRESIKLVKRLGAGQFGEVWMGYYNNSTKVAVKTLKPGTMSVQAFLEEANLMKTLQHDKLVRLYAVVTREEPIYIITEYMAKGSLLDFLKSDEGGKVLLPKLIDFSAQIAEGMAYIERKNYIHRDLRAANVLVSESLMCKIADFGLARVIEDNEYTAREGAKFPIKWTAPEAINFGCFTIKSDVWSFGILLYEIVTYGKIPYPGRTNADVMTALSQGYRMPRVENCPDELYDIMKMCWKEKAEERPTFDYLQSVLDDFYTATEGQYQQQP
Chain of Lyn (h) (P07948 whole entry): as above
Chain of RSK1 (Q15418 whole entry, species assumed): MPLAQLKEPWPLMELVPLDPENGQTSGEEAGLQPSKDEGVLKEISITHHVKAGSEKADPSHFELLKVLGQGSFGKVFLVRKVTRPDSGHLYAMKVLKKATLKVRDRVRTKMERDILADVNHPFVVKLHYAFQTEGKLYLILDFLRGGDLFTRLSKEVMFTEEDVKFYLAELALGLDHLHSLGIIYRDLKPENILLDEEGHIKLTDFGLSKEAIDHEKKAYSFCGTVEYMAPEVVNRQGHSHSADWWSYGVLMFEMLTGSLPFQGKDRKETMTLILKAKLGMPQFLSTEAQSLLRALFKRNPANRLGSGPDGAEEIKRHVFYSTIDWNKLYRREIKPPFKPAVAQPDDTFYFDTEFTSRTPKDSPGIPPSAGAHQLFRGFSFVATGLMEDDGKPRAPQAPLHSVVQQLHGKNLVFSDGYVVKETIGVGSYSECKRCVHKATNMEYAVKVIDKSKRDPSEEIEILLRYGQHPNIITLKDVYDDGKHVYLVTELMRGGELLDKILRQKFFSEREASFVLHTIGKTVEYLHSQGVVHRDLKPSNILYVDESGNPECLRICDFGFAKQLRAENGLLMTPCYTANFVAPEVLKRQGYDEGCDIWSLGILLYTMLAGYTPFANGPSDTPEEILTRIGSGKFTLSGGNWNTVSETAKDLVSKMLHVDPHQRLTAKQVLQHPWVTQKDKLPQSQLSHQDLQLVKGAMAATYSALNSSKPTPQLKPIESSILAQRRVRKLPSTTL
Chain of MAPK14 (P38) (Q16539 whole entry, species assumed): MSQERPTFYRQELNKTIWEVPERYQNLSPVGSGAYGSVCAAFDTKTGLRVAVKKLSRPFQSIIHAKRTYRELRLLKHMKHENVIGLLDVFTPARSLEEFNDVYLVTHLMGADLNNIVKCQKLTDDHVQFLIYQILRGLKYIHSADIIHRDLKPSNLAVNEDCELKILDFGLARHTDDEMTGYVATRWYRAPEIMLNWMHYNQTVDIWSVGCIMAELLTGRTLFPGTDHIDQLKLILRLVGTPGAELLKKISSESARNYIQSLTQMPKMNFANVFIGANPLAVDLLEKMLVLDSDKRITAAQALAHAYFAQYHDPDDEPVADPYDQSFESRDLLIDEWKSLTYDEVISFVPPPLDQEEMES
Chain of MAPK1 (P28482 whole entry, species assumed): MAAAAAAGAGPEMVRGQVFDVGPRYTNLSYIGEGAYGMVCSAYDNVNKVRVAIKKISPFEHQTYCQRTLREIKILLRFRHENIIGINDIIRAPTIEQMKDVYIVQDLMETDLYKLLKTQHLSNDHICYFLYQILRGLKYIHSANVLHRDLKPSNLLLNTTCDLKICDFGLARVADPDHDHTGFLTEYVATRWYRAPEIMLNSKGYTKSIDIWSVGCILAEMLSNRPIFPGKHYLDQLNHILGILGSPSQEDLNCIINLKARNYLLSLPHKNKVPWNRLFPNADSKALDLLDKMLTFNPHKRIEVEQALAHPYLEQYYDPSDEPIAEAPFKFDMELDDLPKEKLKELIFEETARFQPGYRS
Chain of PAK2 (Q13177 whole entry, species assumed): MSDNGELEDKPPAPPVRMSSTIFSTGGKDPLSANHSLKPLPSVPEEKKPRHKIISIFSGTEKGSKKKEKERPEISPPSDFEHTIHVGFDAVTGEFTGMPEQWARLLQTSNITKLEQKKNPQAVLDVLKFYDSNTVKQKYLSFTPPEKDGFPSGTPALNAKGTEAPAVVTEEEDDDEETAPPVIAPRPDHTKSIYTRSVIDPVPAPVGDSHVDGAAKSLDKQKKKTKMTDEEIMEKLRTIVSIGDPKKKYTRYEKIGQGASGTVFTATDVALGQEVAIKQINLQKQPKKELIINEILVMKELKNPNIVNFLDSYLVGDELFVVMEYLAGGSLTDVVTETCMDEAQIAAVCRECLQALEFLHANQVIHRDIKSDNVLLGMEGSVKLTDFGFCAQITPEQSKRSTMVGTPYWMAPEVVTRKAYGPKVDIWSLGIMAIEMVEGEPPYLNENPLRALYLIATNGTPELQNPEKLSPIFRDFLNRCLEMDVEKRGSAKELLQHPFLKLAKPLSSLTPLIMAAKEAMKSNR
Chain of MET (P08581 25-1390): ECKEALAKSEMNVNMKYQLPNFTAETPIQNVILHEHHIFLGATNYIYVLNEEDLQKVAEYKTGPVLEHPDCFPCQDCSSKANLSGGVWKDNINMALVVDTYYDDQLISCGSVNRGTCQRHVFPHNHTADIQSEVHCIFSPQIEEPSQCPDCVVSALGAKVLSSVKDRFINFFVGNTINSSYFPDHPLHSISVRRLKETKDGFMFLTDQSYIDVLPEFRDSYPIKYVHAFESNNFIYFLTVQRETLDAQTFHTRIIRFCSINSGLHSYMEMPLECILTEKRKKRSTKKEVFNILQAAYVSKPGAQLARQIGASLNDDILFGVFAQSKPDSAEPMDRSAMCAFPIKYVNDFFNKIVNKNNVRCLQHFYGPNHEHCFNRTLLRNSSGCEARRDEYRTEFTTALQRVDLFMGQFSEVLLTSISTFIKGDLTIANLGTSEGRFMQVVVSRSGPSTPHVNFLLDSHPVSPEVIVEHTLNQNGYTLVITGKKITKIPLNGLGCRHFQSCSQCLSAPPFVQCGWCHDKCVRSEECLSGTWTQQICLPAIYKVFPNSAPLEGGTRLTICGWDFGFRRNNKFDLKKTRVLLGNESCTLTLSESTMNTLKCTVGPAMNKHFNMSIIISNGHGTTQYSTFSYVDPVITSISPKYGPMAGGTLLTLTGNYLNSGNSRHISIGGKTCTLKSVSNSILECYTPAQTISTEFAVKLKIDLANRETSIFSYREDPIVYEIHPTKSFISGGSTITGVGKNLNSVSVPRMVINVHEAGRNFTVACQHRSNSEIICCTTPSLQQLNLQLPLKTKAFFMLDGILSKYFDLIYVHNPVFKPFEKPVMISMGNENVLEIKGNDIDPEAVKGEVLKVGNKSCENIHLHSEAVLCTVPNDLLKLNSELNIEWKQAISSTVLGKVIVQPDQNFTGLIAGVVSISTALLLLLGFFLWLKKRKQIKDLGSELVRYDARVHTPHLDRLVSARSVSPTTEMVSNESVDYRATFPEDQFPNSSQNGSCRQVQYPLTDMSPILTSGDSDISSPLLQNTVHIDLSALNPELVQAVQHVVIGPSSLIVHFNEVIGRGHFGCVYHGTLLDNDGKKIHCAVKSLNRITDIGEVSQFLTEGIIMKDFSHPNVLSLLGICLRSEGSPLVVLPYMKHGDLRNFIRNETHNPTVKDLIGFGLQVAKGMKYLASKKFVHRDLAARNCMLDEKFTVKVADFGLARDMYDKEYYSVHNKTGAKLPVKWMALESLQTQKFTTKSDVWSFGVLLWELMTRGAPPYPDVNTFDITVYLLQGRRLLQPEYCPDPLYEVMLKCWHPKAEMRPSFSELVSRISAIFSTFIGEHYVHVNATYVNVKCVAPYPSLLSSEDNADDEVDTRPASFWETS
Chain of Akt1 (P31749 whole entry, species assumed): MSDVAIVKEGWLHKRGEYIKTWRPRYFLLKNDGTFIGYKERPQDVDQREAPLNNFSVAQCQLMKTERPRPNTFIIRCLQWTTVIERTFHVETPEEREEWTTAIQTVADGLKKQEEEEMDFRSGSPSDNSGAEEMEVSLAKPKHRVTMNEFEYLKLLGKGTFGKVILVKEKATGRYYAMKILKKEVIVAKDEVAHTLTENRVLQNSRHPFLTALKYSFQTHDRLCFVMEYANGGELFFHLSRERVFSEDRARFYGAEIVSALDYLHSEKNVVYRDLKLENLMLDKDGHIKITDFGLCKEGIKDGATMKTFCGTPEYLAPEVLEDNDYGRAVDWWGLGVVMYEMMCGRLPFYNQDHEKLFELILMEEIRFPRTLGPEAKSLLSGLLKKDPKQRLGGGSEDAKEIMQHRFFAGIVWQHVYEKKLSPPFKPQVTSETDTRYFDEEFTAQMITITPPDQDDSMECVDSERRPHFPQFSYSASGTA
Chain of AurA (O14965 whole entry, species assumed): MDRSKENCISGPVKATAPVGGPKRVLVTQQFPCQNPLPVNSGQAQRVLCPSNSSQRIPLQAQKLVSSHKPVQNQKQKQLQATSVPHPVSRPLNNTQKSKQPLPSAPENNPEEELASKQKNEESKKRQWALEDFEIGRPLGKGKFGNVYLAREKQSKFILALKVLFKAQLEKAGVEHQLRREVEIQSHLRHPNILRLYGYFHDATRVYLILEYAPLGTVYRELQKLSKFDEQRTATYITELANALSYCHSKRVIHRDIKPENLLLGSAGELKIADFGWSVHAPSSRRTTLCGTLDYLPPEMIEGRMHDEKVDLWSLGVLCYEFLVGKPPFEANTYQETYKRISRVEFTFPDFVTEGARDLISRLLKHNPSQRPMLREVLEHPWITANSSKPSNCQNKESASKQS

SMILES: Cc1cccc(Oc2cnc(=O)[nH]c2)c1 [Compound 102]
- activity of Lyn kinase (h) relative to the DMSO control (Lyn (h); 100 μM, 30 minutes pre-incubation on ice, 10 μM ATP, 40 minutes at room temperature): more than 3 fold
- concentration dependence of Lyn kinase (h) activity (Lyn (h); 1, 3, 10, 30 and 100 μM): increased with Compound 102 concentration in a dose-dependent manner
- EC50 (Lyn (h); 30 minutes pre-incubation on ice, 10 μM ATP): 650 nM
- COMPOUND 102 ACTIVITY (% KINASE ACTIVITY) (MAPKAP2): −13.04%
- COMPOUND 102 ACTIVITY (% KINASE ACTIVITY) (RSK1): 1.72%
- p70S6K inhibited by (p70S6K): 24.3%
- COMPOUND 102 ACTIVITY (% KINASE ACTIVITY) (MAPK3 (p38)): −6.05%
- COMPOUND 102 ACTIVITY (% KINASE ACTIVITY) (AurA): −12.21%
- COMPOUND 102 ACTIVITY (% KINASE ACTIVITY) (MSK1): 1.55%
- COMPOUND 102 ACTIVITY (% KINASE ACTIVITY) (KDR (FLK1, VEGFR2)): 0%
- COMPOUND 102 ACTIVITY (% KINASE ACTIVITY) (ROCK2): −3.05%
- COMPOUND 102 ACTIVITY (% KINASE ACTIVITY) (AMPK): −0.95%
- COMPOUND 102 ACTIVITY (% KINASE ACTIVITY) (MET): 9.88%
- COMPOUND 102 ACTIVITY (% KINASE ACTIVITY) (PAK2): 1.55%
- COMPOUND 102 ACTIVITY (% KINASE ACTIVITY) (Pim2): −8.06%
- COMPOUND 102 ACTIVITY (% KINASE ACTIVITY) (MAPK14 (P38)): 1.74%
- COMPOUND 102 ACTIVITY (% KINASE ACTIVITY) (FGFR3): −1.58%
- COMPOUND 102 ACTIVITY (% KINASE ACTIVITY) (Flt3): 7.34%
- COMPOUND 102 ACTIVITY (% KINASE ACTIVITY) (InsR): 16.92%
- COMPOUND 102 ACTIVITY (% KINASE ACTIVITY) (Src): 4.56%
- COMPOUND 102 ACTIVITY (% KINASE ACTIVITY) (Akt1): 1.51%
- COMPOUND 102 ACTIVITY (% KINASE ACTIVITY) (IKKb): −6.26%
- COMPOUND 102 ACTIVITY (% KINASE ACTIVITY) (CHK2): −6.17%
- COMPOUND 102 ACTIVITY (% KINASE ACTIVITY) (PDK1): −2.63%
- COMPOUND 102 ACTIVITY (% KINASE ACTIVITY) (MAPK1): 0.6%
- COMPOUND 102 ACTIVITY (% KINASE ACTIVITY) (PKA): −0.3%
- COMPOUND 102 ACTIVITY (% KINASE ACTIVITY) (PKD2): −10.34%
- COMPOUND 102 ACTIVITY (% KINASE ACTIVITY) (BTK): 10%
- COMPOUND 102 ACTIVITY (% KINASE ACTIVITY) (PKCz): 9.05%
- COMPOUND 102 ACTIVITY (% KINASE ACTIVITY) (CDK2/cyclinA): −3.93%
- COMPOUND 102 ACTIVITY (% KINASE ACTIVITY) (Syc): 11.12%
- Fold-Activation [1, 2]: 1.1 fold
- Fold-Activation [1, 3]: 1.2 fold
- Fold-Activation [1, 4]: 1.6 fold
- Fold-Activation [1, 5]: 2.4 fold
- Fold-Activation ([1]; Reaction Buffer): 1.6 fold
- % Phosphorylation of Substrate [1, 2]: 33.6%
- % Phosphorylation of Substrate [1, 3]: 80.9%
- % Phosphorylation of Substrate [1, 4]: 83.4%
- % Phosphorylation of Substrate [1, 5]: 33.3%
- % Phosphorylation of Substrate ([1]; Reaction Buffer): 16.2%
